Target: T1, BRTNaC1 (broad-range thermal receptor 1) (Scolopendra mutilans, UniProt A0ABF7PQ77)
T1 sequence (A0ABF7PQ77 1-431): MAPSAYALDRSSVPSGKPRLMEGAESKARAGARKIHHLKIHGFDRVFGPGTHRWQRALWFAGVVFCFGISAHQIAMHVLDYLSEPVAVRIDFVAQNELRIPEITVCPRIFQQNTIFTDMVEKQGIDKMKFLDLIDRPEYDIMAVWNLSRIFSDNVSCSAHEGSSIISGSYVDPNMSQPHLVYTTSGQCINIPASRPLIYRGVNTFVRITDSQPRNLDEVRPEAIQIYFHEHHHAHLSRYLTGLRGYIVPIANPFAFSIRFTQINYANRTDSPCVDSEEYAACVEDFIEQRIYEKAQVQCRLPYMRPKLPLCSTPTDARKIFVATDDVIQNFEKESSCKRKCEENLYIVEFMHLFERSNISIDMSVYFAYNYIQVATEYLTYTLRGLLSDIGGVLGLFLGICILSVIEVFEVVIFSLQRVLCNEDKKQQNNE
Test: patch clamp, transfected HEK293 cells, heat-activated current, Hill fit
Assay type: cell-based

**Q.** Which IC50 does the source give for `C[C@]12CC[C@H]3[C@@H](CCC4=CC(=O)CC[C@@]43C)[C@@H]1CC[C@@H]2O` [testosterone] here?
**A.** 3.8 ± 1.1 µM

Source: PMC9974506 (Proceedings of the National Academy of Sciences of the …, 2023)
